Reference: patent publication US10647688B2, “Compounds, synthesis method thereof and use of same in medicine and in cosmetics” (GALDERMA RESEARCH & DEVELOPMENT, priority 2014, dated 2020)

Columns and labels:
Format in all cases: cell-based
RARα = target: T1, RARα (Homo sapiens, UniProt P10276); experiment: Transactivation reporter test (luciferase) in HeLa ERE Luc-hRAR cells, RARα; conditions: for EC50: HeLa ERE Luc-hRAR cells, dose-response 10000 nM-0.04 nM, 18 hours incubation; for RARα Comments: agonist type (total/partial); for RARα Efficacy: normalized to basal control and maximum efficacy control CD0193 100 nM
T1 construct: expressed in transfected cells; line from Prof; Ballaguer, INSERM 439, Montpellier
T1 sequence (P10276 183-417 limits assumed): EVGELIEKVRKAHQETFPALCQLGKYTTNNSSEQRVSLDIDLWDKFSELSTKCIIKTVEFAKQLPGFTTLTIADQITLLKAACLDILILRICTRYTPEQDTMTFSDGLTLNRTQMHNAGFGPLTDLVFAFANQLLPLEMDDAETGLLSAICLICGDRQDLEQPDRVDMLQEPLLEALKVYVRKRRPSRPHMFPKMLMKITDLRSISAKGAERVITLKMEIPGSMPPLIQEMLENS
Description: (§1) The activity of our molecules on the RAR is measured using a recombinant line expressing the ligand-biding domain (LBD) of RAR fused with the DNA binding domain (DBD) of the estrogen receptors. The specific transactivation of the receptor on the receptor estrogen response element (ERE) leads to transcription of luciferase. The expression of this reporter gene is quantified by luminescence after addition of its substrate, luciferin.
(§2) This line was produced by Prof. Ballaguer (INSERM 439, Montpellier) after stable transfection of HeLa by ERE-βGlob-Luc-SV-Neo and RAR(α, β, γ)-ER-DBD-puro plasmids.
(§3) The compounds are evaluated by dose-response (10000 nM-0.04 nM) normalized relative to a basal control and a maximum efficacy control (CD0193, reference agonist with 100 nM saturating concentration): Y=((X−0%)/(100%−0%))*100.
(§4) The affinity (EC50 in nM) and efficacy (in %) are measured using the XLfit (IDBS) software according to a four-parameter nonlinear regression (model 205).
(§5) HeLa ERE Luc-hRAR cells are inoculated on 96 well microplates (10,000 cell/100 μL). After 4 hours of incubation at 37° C./5% CO2, they are treated with 5 μL of 20× products (0.1 final DMSO).

RARβ = target: T2, RARβ (Homo sapiens, UniProt P10826); experiment: Transactivation reporter test (luciferase) in HeLa ERE Luc-hRAR cells, RARβ; conditions: for EC50: HeLa ERE Luc-hRAR cells, dose-response 10000 nM-0.04 nM, 18 hours incubation; for RARβ Comments: agonist type (total/partial); for RARβ Efficacy (%): normalized to basal control and maximum efficacy control CD0193 100 nM
T2 construct: expressed in transfected cells; line from Prof; Ballaguer, INSERM 439, Montpellier
T2 sequence (P10826 183-417 limits assumed): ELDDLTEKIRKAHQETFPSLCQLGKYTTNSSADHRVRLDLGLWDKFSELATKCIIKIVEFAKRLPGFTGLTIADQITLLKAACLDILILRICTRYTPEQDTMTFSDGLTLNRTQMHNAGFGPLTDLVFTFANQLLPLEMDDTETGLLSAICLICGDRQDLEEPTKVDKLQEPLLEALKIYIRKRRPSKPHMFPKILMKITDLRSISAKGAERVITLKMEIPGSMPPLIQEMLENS
Description: as §1, §2, §3, §4, §5

RARγ = target: T3, RARγ (Homo sapiens, UniProt P13631); experiment: Transactivation reporter test (luciferase) in HeLa ERE Luc-hRAR cells, RARγ; conditions: for EC50: HeLa ERE Luc-hRAR cells, dose-response 10000 nM-0.04 nM, 18 hours incubation; for RARγ Comments: agonist type (total/partial); for RARγ Efficacy (%): normalized to basal control and maximum efficacy control CD0193 100 nM
T3 construct: expressed in transfected cells; line from Prof; Ballaguer, INSERM 439, Montpellier
T3 sequence (P13631 185-419 limits assumed): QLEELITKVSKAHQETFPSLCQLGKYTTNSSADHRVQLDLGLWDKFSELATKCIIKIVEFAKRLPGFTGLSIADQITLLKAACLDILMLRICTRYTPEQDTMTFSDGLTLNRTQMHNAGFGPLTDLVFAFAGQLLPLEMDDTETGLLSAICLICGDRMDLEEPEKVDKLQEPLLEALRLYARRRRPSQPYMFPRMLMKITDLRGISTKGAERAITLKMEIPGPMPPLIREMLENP
Description: as §1, §2, §3, §4, §5

Structure (SMILES) | EC50 (RARα) | RARα Comments (RARα) | RARα Efficacy (RARα) | EC50 (RARβ) | RARβ Comments (RARβ) | RARβ Efficacy (%) (RARβ) | EC50 (RARγ) | RARγ Comments (RARγ) | RARγ Efficacy (%) (RARγ)
CCOc1ccc(-c2noc(-c3ccc(C(=O)O)cc3)n2)cc1C(C)(C)C [4-[3-(3-tert-butyl-4-ethoxy-phenyl)-[1,2,4]oxadiazol-5-yl]-benzoic acid] | 255 nM | Total | 105% | 3.8 nM | Total agonist | 92% | 9.3 nM | Total | 96%
CCOCOc1ccc(-c2noc(-c3ccc(C(=O)O)cc3)n2)cc1C(C)(C)C [4-[3-(3-tert-butyl-4-ethoxymethoxy-phenyl)-[1,2,4]oxadiazol-5-yl]-benzoic acid] | 650 nM | Total | 104% | 6.2 nM | Total agonist | 95% | 10 nM | Total | 88%
CC(C)(C)c1cc(-c2noc(-c3ccc(C(=O)O)cc3)n2)ccc1O [4-[3-(3-tert-butyl-4-hydroxy-phenyl)-[1,2,4]oxadiazol-5-yl]-benzoic acid] | 107 nM | Total | 106% | 3 nM | Total agonist | 110% | 2.4 nM | Total | 110%
COc1ccc(-c2cnc(-c3ccc(C(=O)O)cc3)s2)cc1C(C)(C)C [4-[5-(3-tert-butyl-4-methoxy-phenyl)-thiazol-2-yl]-benzoic acid] | 109 nM | partial agonist | 53% | 164 nM | partial agonist | 46% | 66 nM | partial agonist | 40%
CC1(C)CCC(C)(C)c2cc(-c3cnc(-c4ccc(C(=O)O)cc4)s3)ccc21 [4-[5-(5,5,8,8-tetramethyl-5,6,7,8-tetrahydro-naphthalen-2-yl)-thiazol-2-yl]-benzoic acid] | 9790 nM | Total | 64% | 52 nM | Total agonist | 110% | 162 nM | Total | 78%
CCOCOc1ccc(-c2noc(-c3ccc(C(=O)O)cc3)n2)cc1C1(C)CCCCC1 [4-{3-[4-ethoxymethoxy-3-(1-methyl-cyclohexyl)-phenyl]-[1,2,4]oxadiazol-5-yl}-benzoic acid] | 90 nM | Total | 80% | 0.56 nM | Total agonist | 107% | 0.9 nM | Total | 102%
CCCOc1ccc(-c2cnc(-c3ccc(C(=O)O)cc3)s2)cc1C1(C)CCCCC1 [4-{5-[3-(1-methyl-cyclohexyl)-4-propoxy-phenyl]-thiazol-2-yl}-benzoic acid] | 3170 nM | Total | 68% | 635 nM | Total agonist | 90% | 1030 nM | Total | 74%
